Assay results published in ChEMBL document CHEMBL2375215, “Phenylpropiophenone derivatives as potential anticancer agents: synthesis, biological evaluation and quantitative structure-activity relationship study” (Eur J Med Chem, 2013).

Assays:
K562 [1] = test: Selectivity index, ratio of IC50 for PHA-stimulated human PBMC to IC50 for human K562 cells
MCF7 [2] = test: Cytotoxicity against human MCF7 cells assessed as decrease in cell survival after 72 hrs by MTT assay; assay type: functional, cell-based; details: for IC50: MCF7, 72 h
[3] = Selectivity index, ratio of IC50 for human PBMC to IC50 for human LS174 cells
HeLa [4] = test: Selectivity index, ratio of IC50 for human PBMC to IC50 for human HeLa cells
K562 [5] = test: Cytotoxicity against human K562 cells assessed as decrease in cell survival after 72 hrs by MTT assay; assay type: functional, cell-based; details: for IC50: K562, 72 h
[6] = Selectivity index, ratio of IC50 for PHA-stimulated human PBMC to IC50 for human Fem-X cells; assay type: functional
MCF7 [7] = test: Selectivity index, ratio of IC50 for human PBMC to IC50 for human MCF7 cells
[8] = Selectivity index, ratio of IC50 for PHA-stimulated human PBMC to IC50 for human LS174 cells
Fem-X = test: (§1) Cytotoxicity against human Fem-X cells assessed as decrease in cell survival after 72 hrs by MTT assay; assay type: functional, cell-based
[9] = as §1; assay type: functional, cell-based
HeLa [10] = test: Cytotoxicity against human HeLa cells assessed as decrease in cell survival after 72 hrs by MTT assay; assay type: functional, cell-based
LS174 = test: (§2) Cytotoxicity against human LS174 cells assessed as decrease in cell survival after 72 hrs by MTT assay; assay type: functional, cell-based
[11] = as §2; assay type: functional, cell-based; details: LS174, 72 h
PBMC [12] = test: Cytotoxicity against human PBMC assessed as decrease in cell survival after 72 hrs by MTT assay; assay type: cell-based
Aorta = test: Cytotoxicity against rat aorta at < 10 uM in presence of potassium channel and calcium channel blocker; assay type: tissue-based
PC-3 [13] = test: Cytotoxicity against human PC3 cells assessed as decrease in cell survival after 72 hrs by MTT assay; assay type: functional, cell-based; details: for IC50: PC-3, 72 h
K562 [14] = test: Selectivity index, ratio of IC50 for human PBMC to IC50 for human K562 cells
PBMC [15] = test: Cytotoxicity against PHA-stimulated human PBMC assessed as decrease in cell survival after 72 hrs by MTT assay; assay type: cell-based
[16] = Selectivity index, ratio of IC50 for human PBMC to IC50 for human Fem-X cells
PC-3 [17] = test: Selectivity index, ratio of IC50 for PHA-stimulated human PBMC to IC50 for human PC3 cells
PC-3 [18] = test: Selectivity index, ratio of IC50 for human PBMC to IC50 for human PC3 cells
HeLa [19] = test: Selectivity index, ratio of IC50 for PHA-stimulated human PBMC to IC50 for human HeLa cells
MCF7 [20] = test: Selectivity index, ratio of IC50 for PHA-stimulated human PBMC to IC50 for human MCF7 cells

| SMILES | Ratio IC50 (K562 [1]) | Activity (MCF7 [2]) | IC50 (MCF7 [2]; read-out: IC50) [µM] | IC50 (MCF7 [2]; read-out: pIC50 (converted)) [µM] | Ratio IC50 [3] | Ratio IC50 (HeLa [4]) | Activity (K562 [5]) | IC50 (K562 [5]; read-out: IC50) [µM] | IC50 (K562 [5]; read-out: pIC50 (converted)) [µM] | Ratio IC50 [6] | Ratio IC50 (MCF7 [7]) | Ratio IC50 [8] | Activity (Fem-X) | IC50 ([9]; read-out: IC50) [µM] | IC50 ([9]; read-out: pIC50 (converted)) [µM] | Activity (HeLa [10]) | IC50 (HeLa [10]; read-out: IC50) [µM] | IC50 (HeLa [10]; read-out: pIC50 (converted)) [µM] | Activity (LS174) | IC50 ([11]; read-out: IC50) [µM] | other results |
| --- | --- | --- | --- | --- | --- | --- | --- | --- | --- | --- | --- | --- | --- | --- | --- | --- | --- | --- | --- | --- | --- |
| CCCNCC(O)COc1ccccc1C(=O)CCc1ccccc1Cl.Cl (racemic) | 8.82 | Dose-dependent effect | 20.2 | 20.2 | 5.31 | 19.83 | Dose-dependent effect | 6 | 6 | 10.8 | 2.95 | 4.72 | Dose-dependent effect | 4.9 | 4.9 | Dose-dependent effect | 3 | 3 | Dose-dependent effect | 11.2 | IC50 ([11]; read-out: pIC50 (converted)): 11.2 µM; IC50 (PBMC [12]): 59.5 µM; Activity (Aorta): Not Active; Activity (PC-3 [13]): Dose-dependent effect; IC50 (PC-3 [13]; read-out: IC50): 12.6 µM; IC50 (PC-3 [13]; read-out: pIC50 (converted)): 12.6 µM; Ratio IC50 (K562 [14]): 9.91; IC50 (PBMC [15]): 52.9 µM; Ratio IC50 [16]: 12.14; Ratio IC50 (PC-3 [17]): 4.2; Ratio IC50 (PC-3 [18]): 4.72; Ratio IC50 (HeLa [19]): 17.63; Ratio IC50 (MCF7 [20]): 2.62 |
| CCCNCC(O)COc1ccccc1C(=O)CCc1ccc(C)cc1.Cl (racemic) | 2.82 | Dose-dependent effect | 31.7 | 31.7 | 2.34 | 2.24 | Dose-dependent effect | 14.7 | 14.7 | 3.26 | 1.54 | 1.99 | Dose-dependent effect | 12.7 | 12.7 | Dose-dependent effect | 21.7 | 21.7 | Dose-dependent effect | 20.8 | IC50 ([11]; read-out: pIC50 (converted)): 20.8 µM; IC50 (PBMC [12]): 48.7 µM; Activity (PC-3 [13]): Dose-dependent effect; IC50 (PC-3 [13]; read-out: IC50): 24.7 µM; IC50 (PC-3 [13]; read-out: pIC50 (converted)): 24.7 µM; Ratio IC50 (K562 [14]): 3.31; IC50 (PBMC [15]): 41.4 µM; Ratio IC50 [16]: 3.83; Ratio IC50 (PC-3 [17]): 1.68; Ratio IC50 (PC-3 [18]): 1.97; Ratio IC50 (HeLa [19]): 1.91; Ratio IC50 (MCF7 [20]): 1.31 |
